Literature values, collected in patent US20250066691A1, “SOLVENT-BASED DETERGENT COMPOSITIONS AND METHODS FOR HYDROPHOBIC SOIL REMOVAL” (ECOLAB USA INC., priority 2023, published 2025).
Counter-ions that a name gives are not always drawn.

settings: obtained from PubChem

Row | Structure (SMILES) | LogP | Topological Polar Surface Area (Å^2)
1 | CCCCC(CC)COCCO (stereo not shown) [2-2(2-Ethylhexyloxy)ethanol] | 2.5 | 29.5
2 | CCCCC(CC)COC(=O)[C@H](C)O (stereo partly drawn) [2-Ethylhexyl Lactate, 2-Ethylhexyl L-Lactate] | 3 | 46.5
3 | OCc1ccccc1 [Benzyl Alcohol] |  | 20.2
4 | CCCCCCOCCOCCO [Diethylene glycol monohexyl ether] |  | 38.7
5 | CC(C)COC(=O)CCCCC(=O)OCC(C)C [Diisobutyl Adipate] | 3.2 | 52.6
6 | CCCCCCCCCCCCO [Dodecanol (Lauryl Alcohol), Dodecanol] | 5.1 | 20.2
7 | CCOC(=O)C(C)O (stereo not shown) [Ethyl Lactate] | 0.2 | 46.5
8 | CC(=O)OCC(COC(C)=O)OC(C)=O [Glycerol Triacetate] | 0.2 | 78.9
9 | CCCCCCO [Hexanol] |  | 20.2
10 | C=C(C)[C@H]1CC=C(C)CC1 [Limonene] | 3.4 | 0
11 | CCCCCCCC(=O)O [Octanoic acid] |  | 37.3
12 | CC(O)COc1ccccc1 (stereo not shown) [Propylene glycol phenyl ether] | 1.7 | 38.7
13 | Cc1ccccc1 [Toluene] |  | 0
14 | CCOC(=O)CC(O)(CC(=O)OCC)C(=O)OCC [Triethyl Citrate] | 0.1 | 99.1
15 | CCCCOC(C)COC(C)COC(C)CO (stereo not shown) [Tripropylene glycol butyl ether] | 2.9 | 47.9
